Experimental findings from paper PMC11949107, “Polyunsaturated fatty acids and their endocannabinoid-related metabolites activity at human TRPV1 and TRPA1 ion channels expressed in HEK-293 cells” (PeerJ, 2025) are described below.

Where “and” joins values, the source holds several entries; their conditions need not be identical. Equal entries are not always repeated.

For one experiment, the system named is HEK-293 EV cells. Description: Calcium 5 dye [Ca]i assay in HEK-293 empty vector (EV) cells. Type of experiment: cell-based, human. As to conditions: 10 µM; HEK-293 EV cells; percentage of predrug baseline. Put shortly: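 Tetracycline at 1 µg ml^−1 was added 4 h before testing; cells were loaded with Calcium 5 dye for 1 h and read at 37 °C, with drug added after 1 min baseline (final 0.1% DMSO). The response was the % change from the 60 s baseline after solvent subtraction, and EC50/Emax came from a three-parameter logistic fit, reported as pEC50.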

A further experiment has as its target T1, human TRPV1 (Homo sapiens, UniProt Q8NER1).
T1 construct: Life Technologies (cells); host or cells: Flp-In T-REx HEK-293
Description: Calcium 5 dye [Ca]i assay in HEK-293 Flp-In T-REx cells expressing TRPV1 (agonist response). Type of experiment: cell-based. The conditions noted are these: for Change in Ca5 fluorescence, individual experiments (CRC raw data): TRPV1 cells. Put shortly: (§1)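 Tetracycline-induced (1 µg ml^−1, 4 h) HEK-293 T-REx cells loaded with Calcium 5 dye plus 1.25 mM probenecid for 1 h; agonist added after 1 min baseline (0.1% DMSO final), fluorescence (485/525 nm) read every 2 s for 5 min at 37 °C. Response as % change from baseline, solvent-subtracted; EC50/Emax from three-parameter logistic fit, given as pEC50.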

A further experiment deals with T2, human TRPA1 (Homo sapiens, UniProt O75762).
T2 construct: Life Technologies (cells); host or cells: Flp-In T-REx HEK-293
T2 sequence (O75762 whole entry): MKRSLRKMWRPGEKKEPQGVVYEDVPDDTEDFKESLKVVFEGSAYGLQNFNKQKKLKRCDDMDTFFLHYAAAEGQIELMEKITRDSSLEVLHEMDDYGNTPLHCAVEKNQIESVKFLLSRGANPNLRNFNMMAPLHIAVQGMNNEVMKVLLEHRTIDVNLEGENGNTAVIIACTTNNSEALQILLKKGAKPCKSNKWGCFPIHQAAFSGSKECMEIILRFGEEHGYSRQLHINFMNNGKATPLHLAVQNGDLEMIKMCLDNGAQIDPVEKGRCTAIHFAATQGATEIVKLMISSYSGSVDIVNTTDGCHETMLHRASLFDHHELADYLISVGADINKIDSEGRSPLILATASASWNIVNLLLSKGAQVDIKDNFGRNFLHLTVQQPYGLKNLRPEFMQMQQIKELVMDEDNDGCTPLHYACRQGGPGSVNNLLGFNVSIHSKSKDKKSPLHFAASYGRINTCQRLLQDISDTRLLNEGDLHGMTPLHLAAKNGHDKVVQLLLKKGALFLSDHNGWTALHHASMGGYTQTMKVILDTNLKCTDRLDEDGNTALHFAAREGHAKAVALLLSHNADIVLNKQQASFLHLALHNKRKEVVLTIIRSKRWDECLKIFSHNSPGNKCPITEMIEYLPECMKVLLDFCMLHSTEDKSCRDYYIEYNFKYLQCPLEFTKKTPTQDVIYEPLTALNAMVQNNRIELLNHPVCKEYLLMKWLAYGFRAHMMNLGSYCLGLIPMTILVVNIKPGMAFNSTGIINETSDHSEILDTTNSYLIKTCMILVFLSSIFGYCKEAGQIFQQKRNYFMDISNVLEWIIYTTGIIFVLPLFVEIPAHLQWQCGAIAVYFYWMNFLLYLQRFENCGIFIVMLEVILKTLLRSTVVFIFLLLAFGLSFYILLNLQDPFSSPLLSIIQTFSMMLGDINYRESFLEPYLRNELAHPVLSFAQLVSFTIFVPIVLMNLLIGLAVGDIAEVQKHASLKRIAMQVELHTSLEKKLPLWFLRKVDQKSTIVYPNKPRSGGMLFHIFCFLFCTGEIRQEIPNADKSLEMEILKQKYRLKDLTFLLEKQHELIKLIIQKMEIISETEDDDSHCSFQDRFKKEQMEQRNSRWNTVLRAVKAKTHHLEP
Nature of the experiment: Calcium 5 dye [Ca]i assay in HEK-293 Flp-In T-REx cells expressing TRPA1 (agonist response). The format is cell-based. The conditions noted are these: for Change in Ca5 fluorescence, individual experiments (CRC raw data): TRPA1 cells. Put shortly: as §1

T1 sequence (Q8NER1 whole entry): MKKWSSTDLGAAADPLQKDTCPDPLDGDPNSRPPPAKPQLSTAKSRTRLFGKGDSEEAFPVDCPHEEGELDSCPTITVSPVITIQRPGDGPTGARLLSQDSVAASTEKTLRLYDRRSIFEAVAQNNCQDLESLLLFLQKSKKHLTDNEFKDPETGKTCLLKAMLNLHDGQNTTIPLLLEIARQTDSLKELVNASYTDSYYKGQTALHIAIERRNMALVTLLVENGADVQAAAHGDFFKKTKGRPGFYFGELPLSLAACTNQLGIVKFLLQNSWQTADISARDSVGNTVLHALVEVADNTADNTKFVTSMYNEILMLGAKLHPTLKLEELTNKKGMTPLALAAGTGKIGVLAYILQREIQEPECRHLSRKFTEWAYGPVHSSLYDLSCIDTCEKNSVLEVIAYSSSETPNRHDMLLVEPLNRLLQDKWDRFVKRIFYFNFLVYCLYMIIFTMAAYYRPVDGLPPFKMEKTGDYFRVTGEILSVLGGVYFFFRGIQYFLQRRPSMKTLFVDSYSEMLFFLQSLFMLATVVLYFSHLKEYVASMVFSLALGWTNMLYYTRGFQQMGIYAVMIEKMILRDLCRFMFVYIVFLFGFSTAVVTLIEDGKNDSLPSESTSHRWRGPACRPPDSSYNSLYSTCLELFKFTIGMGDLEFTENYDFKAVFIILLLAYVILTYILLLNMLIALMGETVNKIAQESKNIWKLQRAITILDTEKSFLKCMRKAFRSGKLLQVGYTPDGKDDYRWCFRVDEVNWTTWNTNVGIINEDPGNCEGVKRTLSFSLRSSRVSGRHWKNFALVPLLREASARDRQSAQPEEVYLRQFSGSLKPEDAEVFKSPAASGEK

Regarding `CCCCC/C=C\C/C=C\C/C=C\CCCCC(=O)NCCO` [γ-LEA, γ-linolenoyl ethanolamide], in the experiment with HEK-293 EV cells, the “Change of Ca5 fluorescence, Mean ± SEM, EV (10 µM)” value was determined as 11 ± 2%. Besides, at human TRPV1 (10 µM), the “Elevation of [Ca]i in HEK-293 TRPV1 cells compared with HEK-293 EV cells” value is “significantly greater”. In addition, at human TRPV1 (10 µM, HEK-293 TRPV1 cells, percentage of predrug baseline), the “Change of Ca5 fluorescence, Mean ± SEM, TRPV1 (10 µM)” value amounted to 277 ± 67 %. Moreover, the “Maximal TRPV1 response compared with the highest concentration of capsaicin” value on human TRPV1 (30 µM vs capsaicin 10 µM) is “did not differ”. The “TRPV1 response, Mean± SEM (N)” value at human TRPV1 (30 µM, one-way ANOVA comparison with capsaicin 10 µM) is listed as 354± 56. Besides, the “Emax ± SEM % TRPV1 (30 µM)” value at human TRPV1 (highest tested concentration (30 µM) or derived from concentration-response curves (DHEA, AEA, NADA, capsaicin)) stood at 354 ± 39%. In addition, the “Change in Ca5 fluorescence, individual experiments (CRC raw data)” value on human TRPV1 (log concentration -4.52288 (M)) is 350.183 and 323.986 and 542.155 and 300.489 and 279.486 and 328.331; on human TRPV1 (log concentration -5 (M)), 408.892 and 291.398 and 513.101 and 87.8703 and 117.804 and 243.201; at human TRPV1 (log concentration -5.52288 (M)) it was 21.7947 and 80.3389 and 37.6766 and 7.854 and 2.348 and 95.5783; on human TRPV1 (log concentration -6 (M)), 179.174 and 9.167 and 5.6781 and 5.979 and 3.41 and 2.934; at human TRPV1 (log concentration -6.52288 (M)), 5.188 and 2.355 and 8.6025 and 1.698 and 1.3988 and 2.387; on human TRPV1 (log concentration -7 (M)) it was 0.9319 and 4.487 and 3.741 and 0.8649 and 0.1851 and 3.24. For the same compound, the “Change in Ca5 fluorescence, individual experiments (CRC raw data)” value on human TRPA1 (log concentration -4.52288 (M)) is 346.049 and 274.809 and 332.645 and 317.863 and 295.869 and 300.839; at human TRPA1 (log concentration -5 (M)), 11.624 and 8.016 and 83.7476 and 222.133 and 100.409 and 97.3092; at human TRPA1 (log concentration -5.52288 (M)), 5.237 and 1.372 and 11.2552 and 5.494 and 2.231 and 27.0912; at human TRPA1 (log concentration -6 (M)) it was 2.963 and 1.112 and 12.1911 and 2.48 and 2.092 and 1.749; on human TRPA1 (log concentration -6.52288 (M)), 0.5786 and 1.167 and 6.112 and 4.171 and 1.807 and 1.825; on human TRPA1 (log concentration -7 (M)), 0.7736 and 1.971 and 6.385 and 5.071 and 2.235 and 0.6536. Moreover, at human TRPA1 (10 µM (cinnamaldehyde 300 µM)), the “Elevation of [Ca]i in HEK-293 TRPA1 cells compared with HEK-293 EV cells” value is “significantly greater”. For the same compound, the “Change of Ca5 fluorescence, Mean ± SEM, TRPA1 (10 µM)” value on human TRPA1 (10 µM, HEK-293 TRPA1 cells, percentage of predrug baseline) was found to be 87 ± 32 %. The “TRPA1 activation at the highest concentration tested” value on human TRPA1 (30 µM) was “activated TRPA1”. Moreover, at human TRPA1 (30 µM), the “TRPA1 response compared with the highest concentration of cinnamaldehyde (300 µM)” value is “did not differ”. In addition, the “TRPA1 response, Mean± SEM (N)” value at human TRPA1 (30 µM, one-way ANOVA comparison with cinnamaldehyde 300 µM) is 311 ± 60. At human TRPA1 (highest tested concentration (30 µM) or derived from concentration-response curves (cinnamaldehyde)), the “Emax ± SEM % TRPA1 (30 µM)” value came to 311 ± 11%.
